According to US12426614B2, “Lentinula edodes-derived saltiness enhancing peptide, method for preparing the same and use thereof” (Shanghai Academy of Agricultural Sciences, priority 2023, dated 2025):

Tests used:
sensory evaluation team = assay: Saltiness threshold analysis by triangle test method; type: in vivo; settings: serial 1:1 dilution from 1.0 mg/mL; for saltiness threshold: NaCl as positive control
Description: The threshold analysis was conducted by triangle test method. […] A mass concentration of the penultimate solution was recorded as the salinity threshold for the synthetic peptide.

[1] = Electronic tongue saltiness measurement of peptide / NaCl solutions
Description: In order to understand the flavor characteristics of DIQPEER synthetic peptide solutions of different concentrations in NaCl solutions of different concentrations, 0.5 g/L, 1.0 g/L, 1.5 g/L, and 2.0 g/L DIQPEER synthetic peptide aqueous solutions were added into 3.5 g/L, 3.0 g/L, 2.5 g/L, and 2.0 g/L NaCl solutions, respectively, for electronic tongue measurement.
As the concentration of synthetic peptides increased, the concentration of NaCl solution decreased and the saltiness enhancing effect weakened. Without affecting the overall solution taste, DIQPEER could replace about 50% of NaCl compared to the saltiness value of 4.0 g/L NaCl solution.

Compound	saltiness threshold (sensory evaluation team)	Threshold (sensory evaluation team; saltiness threshold)	saltiness intensity of peptide aqueous solutions ([1]; 0.5, 1.0, 1.5 and 2.0 g/L DIQPEER, FIG. 7)	salinity of the solution (synergy with NaCl) ([1]; 1.0 g/L synthetic peptide added to 3.0 g/L NaCl solution, FIG. 8)	saltiness enhancement (increase of saltiness value) ([1]; 1.0 g/L synthetic peptide added to 3.0 g/L NaCl solution, compared with saltiness value of 4.0 g/L NaCl solution)	share of NaCl that can be replaced ([1]; compared to the saltiness value of 4.0 g/L NaCl solution)
[Cl-].[Na+] [NaCl, reference compound]	1.07 mM					
DIQPEER	0.282 mM	0.282 mmol/L	saltiness intensity increased with the increase of the concentration	increased significantly	69.59%	about 50%
